Consider 14 compounds from patent publication US9296741B2, “Bromodomain inhibitors” (priority 2012, dated 2016).

In data set [1] the target is human BRD4 first bromodomain (BDI_K57-E168) (Homo sapiens (Human), UniProt O60885). Briefly: TR-FRET bromodomain binding assay, BRD4 first bromodomain.
In data set [2] the target is human BRD4 second bromodomain (BDII_E352-M457) (Homo sapiens (Human), UniProt O60885). In words: TR-FRET bromodomain binding assay, BRD4 second bromodomain. In general terms: In TR-FRET formats the signal depends on donor and acceptor labels being close together.
Data set [3] deals with breast cancer cell line MX-1. Briefly: MX-1 cell line proliferation assay. Format: cell-based, human. To be noted: Homo sapiens, MX1, 72 h; MX-1 cells, 3-day proliferation, Cell Titer Glo; read-out: Cellular proliferation: EC50. (In general: In ATP-based viability assays light output follows the ATP content of the culture.)
Data set [4] can be described thus: Human liver microsome stability assay. Format: in vitro ADME. To be noted: both sexes, human, microsomes, pH 7.4.
Data set [5] in a line: Rat liver microsome stability assay. To be noted: rat liver microsomes (male Sprague-Dawley), 0.5 μM test compound, 0.25 mg/mL microsomal protein, pH 7.4, 37° C.; read-out: Stability in rat liver microsomes (t1/2 in minutes). Format: in vitro ADME. (Liver microsomes are a subcellular fraction often used to study metabolism.)
Data set [6] can be described thus: Mouse liver microsome stability assay. Format: in vitro ADME. To be noted: male, CD1, mouse, microsomes, pH 7.4.

By Ki is commonly meant a dissociation constant, usually derived from enzyme kinetics or from competition with a known ligand. The low end stands for higher affinity, the high end for lower affinity. With `CCS(=O)(=O)c1ccc(OC2CCN(C(C)=O)CC2)c(-c2cn(C)c(=O)c3[nH]ccc23)c1` [Example 303, 4-{2-[(1-acetylpiperidin-4-yl)oxy]-5-(ethylsulfonyl)phenyl}-6-methyl-1,6-dihydro-7H-pyrrolo[2,3-c]pyridin-7-one], the Ki amounted to 3.9 nM in data set [1] and 7.1 nM in data set [2]. Besides, the EC50 in data set [3] stood at 335 nM. Also, the half-life at 0.5 μM is 42 min in data set [4], 69 min in data set [5] and over 120 min in data set [6].

As for `Cc1ccc(F)c(Oc2ccc(S(C)(=O)=O)cc2-c2cn(C)c(=O)c3[nH]ccc23)c1` [Example 186, 4-[2-(2-fluoro-5-methylphenoxy)-5-(methylsulfonyl)phenyl]-6-methyl-1,6-dihydro-7H-pyrrolo[2,3-c]pyridin-7-one], the Ki came to 10.1 nM in data set [1] and 3.3 nM in data set [2]. Further, in data set [3], the EC50 is 48.4 nM. Besides, the values for the half-life at 0.5 μM in data set [4], in data set [5] and in data set [6] were 9 min, 3 min and 8 min, respectively.

On to `Cc1ccc(Oc2ccc(S(C)(=O)=O)cc2-c2cn(C)c(=O)c3[nH]ccc23)cc1` [Example 177, 6-methyl-4-[2-(4-methylphenoxy)-5-(methylsulfonyl)phenyl]-1,6-dihydro-7H-pyrrolo[2,3-c]pyridin-7-one], for which the Ki is 11.3 nM in data set [1] and 4.4 nM in data set [2]. Also, the EC50 in data set [3] is 53.5 nM. Also, the half-life at 0.5 μM in data set [4] was found to be 16 min; in data set [5], 6 min; in data set [6], 18 min.

Take `Cn1cc(-c2cc(CCO)ccc2OCc2ccccc2)c2cc[nH]c2c1=O` [Example 44, 4-[2-(benzyloxy)-5-(2-hydroxyethyl)phenyl]-6-methyl-1,6-dihydro-7H-pyrrolo[2,3-c]pyridin-7-one]: the Ki came to 286 nM in data set [1] and 236 nM in data set [2]. Besides, the EC50 in data set [3] came to 828 nM. Moreover, the half-life at 0.5 μM in data set [4] worked out at 33.7 min; in data set [5] it was 6 min; in data set [6], 27 min.

For `CCOC(=O)N1CCC(Oc2ccc(S(C)(=O)=O)cc2-c2cn(C)c(=O)c3[nH]ccc23)CC1` [Example 258, ethyl 4-[2-(6-methyl-7-oxo-6,7-dihydro-1H-pyrrolo[2,3-c]pyridin-4-yl)-4-(methylsulfonyl)phenoxy]piperidine-1-carboxylate], the Ki in data set [1] was determined as 5.9 nM; in data set [2] it was 12.4 nM. For the same compound, the EC50 in data set [3] was 76.5 nM. Besides, the half-life at 0.5 μM in data set [4] is 42 min; in data set [5], 91 min; in data set [6] it was 69.8 min.

Turning to `Cn1cc(-c2cc(NS(C)(=O)=O)ccc2OC2CCCCC2)c2cc[nH]c2c1=O` [Example 57, N-[4-(cyclohexyloxy)-3-(6-methyl-7-oxo-6,7-dihydro-1H-pyrrolo[2,3-c]pyridin-4-yl)phenyl]methanesulfonamide], the Ki in data set [1] came to 0.88 nM; in data set [2], 2 nM. In data set [3], the EC50 worked out at 13.8 nM. The half-life at 0.5 μM in data set [4] was determined as 13 min; in data set [5], 6 min; in data set [6], 5 min.

As to `CCS(=O)(=O)N(CC1CCCO1)c1ccc(Oc2ccc(F)cc2F)c(-c2cn(C)c(=O)c3[nH]ccc23)c1` (stereo not drawn) [Example 345, N-[4-(2,4-difluorophenoxy)-3-(6-methyl-7-oxo-6,7-dihydro-1H-pyrrolo[2,3-c]pyridin-4-yl)phenyl]-N-(tetrahydrofuran-2-ylmethyl)ethanesulfonamide], the Ki was 129 nM in data set [1] and 32.6 nM in data set [2]. Besides, the EC50 in data set [3] was 479 nM. Further, the half-life at 0.5 μM turned out to be 2 min in data set [4], 4 min in data set [5] and 2 min in data set [6].

For the compound `CCS(=O)(=O)c1ccc(Oc2cccc(CO)c2)c(-c2cn(C)c(=O)c3[nH]ccc23)c1` [Example 317, 4-{5-(ethylsulfonyl)-2-[3-(hydroxymethyl)phenoxy]phenyl}-6-methyl-1,6-dihydro-7H-pyrrolo[2,3-c]pyridin-7-one], the Ki in data set [1] came out at 6.7 nM; in data set [2], 3.6 nM. Moreover, in data set [3], the EC50 was found to be 16.8 nM. Moreover, the half-life at 0.5 μM amounted to 88 min in data set [4], 115 min in data set [5] and 83 min in data set [6].

`Cn1cc(-c2cc(C(=O)N3CCC(NC(=O)OC(C)(C)C)C3)ccc2Oc2ccc(F)cc2F)c2cc[nH]c2c1=O` (stereo not drawn) [Example 54, tert-butyl {1-[4-(2,4-difluorophenoxy)-3-(6-methyl-7-oxo-6,7-dihydro-1H-pyrrolo[2,3-c]pyridin-4-yl)benzoyl]pyrrolidin-3-yl}carbamate]: the figures for the Ki in data set [1] and in data set [2] were 95.1 nM and 37.5 nM, respectively. For the same compound, the EC50 in data set [3] stood at 266 nM. In addition, the values for the half-life at 0.5 μM in data set [4], in data set [5] and in data set [6] were 3 min, 30 min and 2 min, respectively.

On to `CC(=O)Nc1ccc(Oc2ccccc2)c(-c2cn(C)c(=O)c3[nH]ccc23)c1` [Example 6, N-[3-(6-methyl-7-oxo-6,7-dihydro-1H-pyrrolo[2,3-c]pyridin-4-yl)-4-phenoxyphenyl]acetamide], for which the Ki was 5.3 nM in data set [1] and 5.8 nM in data set [2]. Further, in data set [3], the EC50 was 46 nM. In addition, the results for the half-life at 0.5 μM in data set [4], in data set [5] and in data set [6] were 30 min, 7 min and 3 min, respectively.

On to `Cn1cc(-c2cc(S(C)(=O)=O)ccc2Oc2ccccc2Cl)c2cc[nH]c2c1=O` [Example 152, 4-[2-(2-chlorophenoxy)-5-(methylsulfonyl)phenyl]-6-methyl-1,6-dihydro-7H-pyrrolo[2,3-c]pyridin-7-one], for which the results for the inhibitory constant (Ki) in data set [1] and in data set [2] were 24.6 nM and 4.8 nM, respectively. For the same compound, the EC50 in data set [3] was 105 nM. In addition, the half-life at 0.5 μM turned out to be 51 min in data set [4], 10 min in data set [5] and 22 min in data set [6].

As for `Cn1cc(-c2cc(S(C)(=O)=O)ccc2OCC2CCOC2)c2cc[nH]c2c1=O` (stereo not drawn) [Example 217, 6-methyl-4-[5-(methylsulfonyl)-2-(tetrahydrofuran-3-ylmethoxy)phenyl]-1,6-dihydro-7H-pyrrolo[2,3-c]pyridin-7-one], the Ki in data set [1] stood at 3.3 nM; in data set [2], 8.1 nM. The EC50 in data set [3] is 34.2 nM. Besides, the half-life at 0.5 μM in data set [4] is 70 min; in data set [5], 101 min; in data set [6], 68 min.

As for `CN(C)C(=O)c1cc2c(-c3cc(S(C)(=O)=O)ccc3Oc3ccc(F)cc3F)cn(C)c(=O)c2[nH]1` [Example 269, 4-[2-(2,4-difluorophenoxy)-5-(methylsulfonyl)phenyl]-N,N,6-trimethyl-7-oxo-6,7-dihydro-1 H-pyrrolo[2,3-c]pyridine-2-carboxamide], the figures for the Ki in data set [1] and in data set [2] were 12.4 nM and 56.9 nM, respectively. Moreover, in data set [3], the EC50 is 329 nM. The half-life at 0.5 μM in data set [4] stood at 79 min; in data set [5] it was 83 min; in data set [6], 58 min.

In the case of `Cn1cc(-c2cc(NS(=O)(=O)CCF)ccc2Oc2c(F)cc(F)cc2F)c2cc[nH]c2c1=O` [Example 114, 2-fluoro-N-[3-(6-methyl-7-oxo-6,7-dihydro-1H-pyrrolo[2,3-c]pyridin-4-yl)-4-(2,4,6-trifluorophenoxy)phenyl]ethanesulfonamide], the Ki in data set [1] is 136 nM; in data set [2], 121 nM. The EC50 in data set [3] is over 3000 nM. For the same compound, the half-life at 0.5 μM in data set [4] turned out to be 13 min; in data set [5] it was 5 min; in data set [6], 8 min.
